From ChEMBL document CHEMBL1201862, “PubChem BioAssay data set” (2004)
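Briefly, cells in 96-well plates were exposed to five compound concentrations for 48 h, and endpoints were estimated by linear interpolation. Here, GI50 denotes the concentration required for 50% inhibition of growth.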 Calls of active or inactive are those of the source. No stated cut-off is given here; in the data, active = GI50 up to about 1.1 µM and inactive = higher.

What was measured:
Assay in all cases: DTP human tumour cell line panel, 48 h
UO-31 = test system: UO-31
SK-MEL-2 = test system: SK-MEL-2
786-0 = test system: 786-0
SF-268 = test system: SF-268
NCI/ADR-RES = test system: NCI/ADR-RES
HL-60 = test system: HL-60
A498 = test system: A498
RXF 393 = test system: RXF 393
A549 = test system: A549
PC-3 = test system: PC-3
TK-10 = test system: TK-10
U-251 = test system: U-251
SK-MEL-5 = test system: SK-MEL-5
SNB-19 = test system: SNB-19
MCF7 = test system: MCF7
NCI-H522 = test system: NCI-H522
SK-OV-3 = test system: SK-OV-3
MDA-MB-231 = test system: MDA-MB-231
NCI-H226 = test system: NCI-H226

Compound | GI50 (UO-31) | GI50 (SK-MEL-2) | GI50 (786-0) | GI50 (SF-268) | GI50 (NCI/ADR-RES) | GI50 (HL-60) | GI50 (A498) | GI50 (RXF 393) | GI50 (A549) | GI50 (PC-3) | GI50 (TK-10) | GI50 (U-251) | GI50 (SK-MEL-5) | GI50 (SNB-19) | GI50 (MCF7) | GI50 (NCI-H522) | GI50 (SK-OV-3) | GI50 (MDA-MB-231) | GI50 (NCI-H226)
OC1(c2ccccc2)CCCCCCCCC(O)(c2ccccc2)CCCCCCCC1 (stereo not drawn) | > 100 µM (inactive) | > 100 µM (inactive) | > 100 µM (inactive) | > 100 µM (inactive) | > 100 µM (inactive) | 59.2 µM (inactive) | > 100 µM (inactive) | > 100 µM (inactive) | > 100 µM (inactive) | > 100 µM (inactive) | > 100 µM (inactive) | > 100 µM (inactive) | > 100 µM (inactive) | > 100 µM (inactive) | > 100 µM (inactive) | > 100 µM (inactive) | > 100 µM (inactive) | – | –
O=C(N/C(=C/c1ccc(Cl)cc1)c1nc2ccccc2c(=O)n1Nc1ccc([N+](=O)[O-])cc1[N+](=O)[O-])c1ccccc1 | > 100 µM (inactive) | – | > 100 µM (inactive) | – | > 100 µM (inactive) | – | – | – | > 100 µM (inactive) | > 100 µM (inactive) | > 100 µM (inactive) | > 100 µM (inactive) | > 100 µM (inactive) | > 100 µM (inactive) | > 100 µM (inactive) | > 100 µM (inactive) | > 100 µM (inactive) | > 100 µM (inactive) | > 100 µM (inactive)
COc1ccc(N(c2ccc(C#N)cc2)c2ccc(C#N)cc2)cc1 | 22.2 µM (inactive) | > 100 µM (inactive) | > 100 µM (inactive) | > 100 µM (inactive) | – | 3.97 µM (inactive) | 65.3 µM (inactive) | – | > 100 µM (inactive) | > 100 µM (inactive) | > 100 µM (inactive) | > 100 µM (inactive) | > 100 µM (inactive) | > 100 µM (inactive) | 26 µM (inactive) | 3.78 µM (inactive) | > 100 µM (inactive) | > 100 µM (inactive) | > 100 µM (inactive)
C/C=C/C[C@@H](C)C(=O)C1C(=O)N[C@@H](C(C)C)C(=O)N(C)CC(=O)N(C)[C@@H](CC(C)C)C(=O)N[C@@H](C(C)C)C(=O)N(C)[C@@H](CC(C)C)C(=O)N[C@@H](C)C(=O)N[C@@H](C)C(=O)N(C)[C@@H](CC(C)C)C(=O)N(C)[C@@H](CC(C)C)C(=O)N(C)[C@@H](C(C)C)C(=O)N1C (stereo partly drawn) | 3.78 µM (inactive) | – | 7.76 µM (inactive) | 7.89 µM (inactive) | 2.74 µM (inactive) | 2.8 µM (inactive) | – | 3.03 µM (inactive) | 3.97 µM (inactive) | 0.703 µM (active) | 6.1 µM (inactive) | 5.94 µM (inactive) | 2.99 µM (inactive) | 14 µM (inactive) | 3.95 µM (inactive) | 4.19 µM (inactive) | > 20.5 µM (inactive) | 6.17 µM (inactive) | 6.11 µM (inactive)
Oc1c(N2CCOCC2)cc(-c2cc(N3CCOCC3)c(O)c3ccccc23)c2ccccc12 | 1.73 µM (inactive) | 2.65 µM (inactive) | 1.63 µM (inactive) | 3.33 µM (inactive) | 3.13 µM (inactive) | – | – | 1.56 µM (inactive) | 2.26 µM (inactive) | 2.64 µM (inactive) | 12.9 µM (inactive) | 1.82 µM (inactive) | 0.422 µM (active) | 3.61 µM (inactive) | 2.12 µM (inactive) | 2.23 µM (inactive) | 6.47 µM (inactive) | 1.24 µM (inactive) | 10.1 µM (inactive)
Clc1ccc(/C=N/C23CC4CC(CC(C4)C2)C3)c(Cl)c1 | – | > 10 µM (inactive) | > 10 µM (inactive) | > 10 µM (inactive) | > 10 µM (inactive) | > 10 µM (inactive) | > 10 µM (inactive) | > 10 µM (inactive) | > 10 µM (inactive) | > 10 µM (inactive) | > 10 µM (inactive) | > 10 µM (inactive) | > 10 µM (inactive) | > 10 µM (inactive) | – | > 10 µM (inactive) | > 10 µM (inactive) | > 10 µM (inactive) | > 10 µM (inactive)
CP(=O)(O)C(N)c1ccccc1 (stereo not drawn) | > 100 µM (inactive) | – | > 100 µM (inactive) | > 100 µM (inactive) | > 100 µM (inactive) | > 100 µM (inactive) | – | – | > 100 µM (inactive) | > 100 µM (inactive) | > 100 µM (inactive) | > 100 µM (inactive) | > 100 µM (inactive) | > 100 µM (inactive) | > 100 µM (inactive) | > 100 µM (inactive) | > 100 µM (inactive) | – | > 100 µM (inactive)
COC(=O)CCC1(CCC(=O)OC)CCCCCCC(CCC(=O)OC)(CCC(=O)OC)C(=O)C1=O | 44.4 µM (inactive) | > 100 µM (inactive) | > 100 µM (inactive) | > 100 µM (inactive) | 81.5 µM (inactive) | – | > 100 µM (inactive) | > 100 µM (inactive) | > 100 µM (inactive) | 47.8 µM (inactive) | > 100 µM (inactive) | > 100 µM (inactive) | 59 µM (inactive) | > 100 µM (inactive) | > 100 µM (inactive) | > 100 µM (inactive) | > 100 µM (inactive) | – | > 100 µM (inactive)
Cc1ccccc1C1=[N+]([O-])c2ccc(Cl)cc2C1=O | 14.3 µM (inactive) | 14.1 µM (inactive) | 18.9 µM (inactive) | 18.5 µM (inactive) | – | 2.35 µM (inactive) | 20.2 µM (inactive) | 20 µM (inactive) | 19.6 µM (inactive) | – | 20 µM (inactive) | 17.7 µM (inactive) | 13.8 µM (inactive) | 28.1 µM (inactive) | – | 11.5 µM (inactive) | 26.4 µM (inactive) | – | 14.4 µM (inactive)
Cc1ccc(C(=O)C2C=C(c3ccc(C)cc3)SC3C=CCC32)cc1 (stereo not drawn) | 16.1 µM (inactive) | 16.1 µM (inactive) | 19.5 µM (inactive) | – | 18.5 µM (inactive) | 8.95 µM (inactive) | 24.7 µM (inactive) | 21 µM (inactive) | 22.9 µM (inactive) | 18.1 µM (inactive) | 25.3 µM (inactive) | 17.9 µM (inactive) | 15.5 µM (inactive) | 30 µM (inactive) | – | 15.3 µM (inactive) | 25.2 µM (inactive) | 25.1 µM (inactive) | 27.2 µM (inactive)
CON(C)C(=O)C(Cc1ccccc1)NC(=O)OC(C)(C)C (stereo not drawn) | > 100 µM (inactive) | – | > 100 µM (inactive) | > 100 µM (inactive) | > 100 µM (inactive) | > 100 µM (inactive) | > 100 µM (inactive) | > 100 µM (inactive) | > 100 µM (inactive) | > 100 µM (inactive) | > 100 µM (inactive) | > 100 µM (inactive) | > 100 µM (inactive) | > 100 µM (inactive) | > 100 µM (inactive) | – | > 100 µM (inactive) | – | > 100 µM (inactive)
CCCCCCc1cc2cc(-c3csc(-c4ccc(OC)cc4)n3)c(=O)oc2cc1O | 6.7 µM (inactive) | 15.8 µM (inactive) | 5.28 µM (inactive) | 4.79 µM (inactive) | – | 33.3 µM (inactive) | – | 13.1 µM (inactive) | 16.7 µM (inactive) | 18.9 µM (inactive) | 14 µM (inactive) | 5.24 µM (inactive) | 9.06 µM (inactive) | 9.95 µM (inactive) | 17.8 µM (inactive) | – | 15.2 µM (inactive) | 11 µM (inactive) | 14 µM (inactive)
CC(C)(C)c1ccc(C(C)(C)C)c(N2C(=O)C3ON=C(c4ccc([N+](=O)[O-])cc4)C3C2=O)c1 (stereo not drawn) | 22.1 µM (inactive) | – | 3.15 µM (inactive) | 13.7 µM (inactive) | 17.3 µM (inactive) | > 25 µM (inactive) | 5.96 µM (inactive) | 15.1 µM (inactive) | 5.61 µM (inactive) | – | > 25 µM (inactive) | – | > 25 µM (inactive) | > 25 µM (inactive) | 22.8 µM (inactive) | 18.4 µM (inactive) | > 25 µM (inactive) | – | 18.6 µM (inactive)
O=C(CCCN1CCC(O)(c2ccc(Cl)cc2)CC1)c1ccc(F)cc1 [HALOPERIDOL] | 15.7 µM (inactive) | 20.7 µM (inactive) | 19.4 µM (inactive) | 48.2 µM (inactive) | 30.1 µM (inactive) | – | – | – | 42.8 µM (inactive) | 70 µM (inactive) | 39.8 µM (inactive) | 20.7 µM (inactive) | 15.9 µM (inactive) | > 100 µM (inactive) | 37.9 µM (inactive) | 20.6 µM (inactive) | 34.9 µM (inactive) | 22 µM (inactive) | 32.2 µM (inactive)
CC1=C(C(=O)CC(=O)C(=O)Nc2cccc(Cl)c2C)Sc2ccccc2N1 | > 100 µM (inactive) | > 100 µM (inactive) | > 100 µM (inactive) | > 100 µM (inactive) | – | > 100 µM (inactive) | – | > 100 µM (inactive) | > 100 µM (inactive) | – | > 100 µM (inactive) | > 100 µM (inactive) | > 100 µM (inactive) | > 100 µM (inactive) | – | > 100 µM (inactive) | > 100 µM (inactive) | – | > 100 µM (inactive)
O=C(O)Cc1ccc(Nc2nc3ccccc3nc2C(=O)O)cc1 | > 100 µM (inactive) | > 100 µM (inactive) | > 100 µM (inactive) | > 100 µM (inactive) | > 100 µM (inactive) | > 100 µM (inactive) | > 100 µM (inactive) | > 100 µM (inactive) | > 100 µM (inactive) | > 100 µM (inactive) | > 100 µM (inactive) | > 100 µM (inactive) | > 100 µM (inactive) | > 100 µM (inactive) | > 100 µM (inactive) | > 100 µM (inactive) | > 100 µM (inactive) | – | > 100 µM (inactive)
